Measured values taken from ChEMBL document CHEMBL5241131, “2-Anilino-4-(1-methyl-1H-pyrazol-4-yl)pyrimidine-derived CDK2 inhibitors as anticancer agents: Design, synthesis & evaluation” (Bioorg Med Chem, 2023).
pKi: −log10 of the molar value. Calls of active or inactive are those of the source. The rule behind the calls is not given here.

How the values were obtained:
[1] = biological target: T1, Cyclin-dependent kinase 1/cyclin B (Homo sapiens, UniProt P06493); assay: Inhibition of CDK1/Cyclin B (unknown origin) assessed as inhibition constant incubated for 30 to 60 mins presence of dithiothreitol by Cheng-Prusoff equation analysis; type: protein-complex assay
[2] = biological target: T2, Cyclin-dependent kinase 2/cyclin E (Homo sapiens, UniProt P24941); assay: Inhibition of CDK2/cyclin E (unknown origin) assessed as inhibition constant incubated for 30 to 60 mins presence of dithiothreitol by Cheng-Prusoff equation analysis; type: protein-complex assay
[3] = biological target: Cyclin-dependent kinase 5/CDK5 activator 1 (Homo sapiens, UniProt Q00535); assay: Inhibition of CDK5/p25 (unknown origin) assessed as inhibition constant incubated for 30 to 60 mins presence of dithiothreitol by Cheng-Prusoff equation analysis; type: protein-complex assay
[4] = biological target: CDK9/cyclin T1 (Homo sapiens, UniProt P50750); assay: Inhibition of CDK9/cyclin T1 (unknown origin) assessed as inhibition constant incubated for 30 to 60 mins presence of dithiothreitol by Cheng-Prusoff equation analysis; type: protein-complex assay
[5] = test system: A2780; assay: Antiproliferative activity against human A2780 cells assessed as inhibition of cell growth at 1 uM incubated for 72 hrs by MTT assay; type: functional; set-up: scale not given: the % may be the effect or the level left
[6] = test system: OVCAR-5; assay: Antiproliferative activity against human OVCAR-5 cells assessed as inhibition of cell growth incubated for 72 hrs by MTT assay; type: functional
[7] = test system: A2780; assay: Antiproliferative activity against human A2780 cells assessed as inhibition of cell growth incubated for 72 hrs by MTT assay; type: functional
[8] = test system: U-937; assay: Antiproliferative activity against human U-937 cells assessed as inhibition of cell growth incubated for 72 hrs by MTT assay; type: functional
[9] = test system: MV4-11; assay: Antiproliferative activity against human MV4-11 cells assessed as inhibition of cell growth incubated for 72 hrs by MTT assay; type: functional
[10] = test system: MDA-MB-231; assay: Antiproliferative activity against human MDA-MB-231 cells assessed as inhibition of cell growth incubated for 72 hrs by MTT assay; type: functional
[11] = test system: NCI-H460; assay: Antiproliferative activity against human NCI-H460 cells assessed as inhibition of cell growth incubated for 72 hrs by MTT assay; type: functional
[12] = test system: NCI-H82; assay: Antiproliferative activity against human NCI-H82 cells assessed as inhibition of cell growth incubated for 72 hrs by MTT assay; type: functional
[13] = test system: U-251; assay: Antiproliferative activity against human U-251 cells assessed as inhibition of cell growth incubated for 72 hrs by MTT assay; type: functional
[14] = test system: HCT-116; assay: Antiproliferative activity against human HCT-116 cells assessed as inhibition of cell growth incubated for 72 hrs by MTT assay; type: functional
[15] = test system: HT-29; assay: Antiproliferative activity against human HT-29 cells assessed as inhibition of cell growth incubated for 72 hrs by MTT assay; type: functional
[16] = test system: KM12; assay: Antiproliferative activity against human KM12 cells assessed as inhibition of cell growth incubated for 72 hrs by MTT assay; type: functional
[17] = test system: COLO 205; assay: Antiproliferative activity against human COLO 205 cells assessed as inhibition of cell growth incubated for 72 hrs by MTT assay; type: functional
[18] = test system: ES-2; assay: Antiproliferative activity against human ES2 cells assessed as inhibition of cell growth incubated for 72 hrs by MTT assay; type: functional
[19] = test system: OAW-28; assay: Antiproliferative activity against human OAW-28 cells assessed as inhibition of cell growth incubated for 72 hrs by MTT assay; type: functional
[20] = test system: OV-90; assay: Antiproliferative activity against human OV-90 cells assessed as inhibition of cell growth incubated for 72 hrs by MTT assay; type: functional
[21] = Antiproliferative activity against human COV318 cells assessed as inhibition of cell growth incubated for 72 hrs by MTT assay; type: functional
[22] = Antiproliferative activity against human COV504 cells assessed as inhibition of cell growth incubated for 72 hrs by MTT assay; type: functional
[23] = biological target: Cyclin-dependent kinase 1/cyclin B (Homo sapiens) (UniProt P06493+P14635+Q8WWL7+O95067); assay: Inhibition of CDK1/Cyclin B (unknown origin) at 1 uM incubated for 30 to 60 mins presence of dithiothreitol by Cheng-Prusoff equation analysis relative to control; type: protein-complex assay; settings: time 30-60 min
[24] = biological target: Cyclin-dependent kinase 2/cyclin E (Homo sapiens) (UniProt P24864+P24941+O96020); assay: Inhibition of CDK2/cyclin E (unknown origin) at 1 uM incubated for 30 to 60 mins presence of dithiothreitol by Cheng-Prusoff equation analysis relative to control; type: protein-complex assay; settings: time 30-60 min
[25] = biological target: Cyclin-dependent kinase 5/CDK5 activator 1 (Homo sapiens) (UniProt Q00535+Q15078); assay: Inhibition of CDK5/p25 (unknown origin) at 1 uM incubated for 30 to 60 mins presence of dithiothreitol by Cheng-Prusoff equation analysis relative to control; type: protein-complex assay; settings: time 30-60 min
[26] = biological target: CDK9/cyclin T1 (Homo sapiens) (UniProt O60563+P50750); assay: Inhibition of CDK9/cyclin T1 (unknown origin) at 1 uM incubated for 30 to 60 mins presence of dithiothreitol by Cheng-Prusoff equation analysis relative to control; type: protein-complex assay; settings: time 30-60 min
[27] = test system: HCT-116; assay: Induction of cell cycle arrest in human HCT-116 cells assessed as accumulation of cells at sub G1 phase at 1 uM incubated for 24 hrs by propidium iodide staining based flow cytometry (reference value: 0.24%); type: functional
[28] = test system: HCT-116; assay: Induction of cell cycle arrest in human HCT-116 cells assessed as accumulation of cells at G1 phase at 1 uM incubated for 24 hrs by propidium iodide staining based flow cytometry (reference value: 51.33%); type: functional
[29] = test system: HCT-116; assay: Induction of cell cycle arrest in human HCT-116 cells assessed as accumulation of cells at S phase at 1 uM incubated for 24 hrs by propidium iodide staining based flow cytometry (reference value: 18.01%); type: functional
[30] = test system: HCT-116; assay: Induction of cell cycle arrest in human HCT-116 cells assessed as accumulation of cells at G2/M phase at 1 uM incubated for 24 hrs by propidium iodide staining based flow cytometry (reference value: 28.37%); type: functional
[31] = test system: HCT-116; assay: Induction of apoptosis in human HCT-116 cells assessed as viable cells at 1 uM incubated for 72 hrs by AnnexinV-FITC/propidium iodide staining based flow cytometry (reference value: 93.43%); type: functional; settings: read-out: Activity
[32] = test system: HCT-116; assay: Induction of apoptosis in human HCT-116 cells assessed as early apoptotic cells at 1 uM incubated for 72 hrs by AnnexinV-FITC/propidium iodide staining based flow cytometry (reference value: 2.95%); type: functional
[33] = test system: HCT-116; assay: Induction of apoptosis in human HCT-116 cells assessed as late apoptotic cells at 1 uM incubated for 72 hrs by AnnexinV-FITC/propidium iodide staining based flow cytometry (reference value: 2.91%); type: functional
[34] = test system: HCT-116; assay: Induction of apoptosis in human HCT-116 cells assessed as necrotic cells at 1 uM incubated for 72 hrs by AnnexinV-FITC/propidium iodide staining based flow cytometry (Rvb =0.71%); type: functional
[35] = test system: HCT-116; assay: Induction of apoptosis in human HCT-116 cells assessed as increase in cleaved PARP level at 1 uM incubated for 24 hrs by Western blot analysis; type: functional, cell-based
[36] = biological target: CDK9/Cyclin T (Homo sapiens, UniProt P50750); assay: Inhibition of CDK9/cyclin T (unknown origin) assessed as inhibition constant; type: protein-complex assay
[37] = biological target: T2, Cyclin-dependent kinase 2/cyclin E; assay: Inhibition of CDK2/cyclin E (unknown origin) assessed as inhibition constant; type: protein-complex assay
[38] = biological target: T1, Cyclin-dependent kinase 1/cyclin B; assay: Inhibition of CDK1/Cyclin B (unknown origin) assessed as inhibition constant; type: protein-complex assay

Chain of CDK9/cyclin T1 (O60563 whole entry): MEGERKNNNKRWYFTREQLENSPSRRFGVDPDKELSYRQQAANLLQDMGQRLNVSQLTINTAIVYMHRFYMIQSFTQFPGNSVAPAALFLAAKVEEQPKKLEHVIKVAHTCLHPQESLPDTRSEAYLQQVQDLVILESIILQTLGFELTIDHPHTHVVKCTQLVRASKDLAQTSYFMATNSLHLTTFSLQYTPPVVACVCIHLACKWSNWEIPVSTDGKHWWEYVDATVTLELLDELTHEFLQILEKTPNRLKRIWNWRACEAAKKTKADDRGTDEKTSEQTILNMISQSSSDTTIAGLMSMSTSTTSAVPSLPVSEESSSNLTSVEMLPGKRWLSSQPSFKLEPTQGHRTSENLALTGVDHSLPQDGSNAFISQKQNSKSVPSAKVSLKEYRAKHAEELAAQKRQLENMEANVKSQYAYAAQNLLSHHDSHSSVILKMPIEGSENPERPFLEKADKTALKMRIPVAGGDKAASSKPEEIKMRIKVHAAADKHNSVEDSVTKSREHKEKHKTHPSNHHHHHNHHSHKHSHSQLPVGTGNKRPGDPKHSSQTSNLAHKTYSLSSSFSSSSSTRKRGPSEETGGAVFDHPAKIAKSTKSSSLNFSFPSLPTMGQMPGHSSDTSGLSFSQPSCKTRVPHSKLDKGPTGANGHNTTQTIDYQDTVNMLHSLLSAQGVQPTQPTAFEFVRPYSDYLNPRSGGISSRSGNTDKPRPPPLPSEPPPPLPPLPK
Chain of CDK9/cyclin T1 (P50750 whole entry): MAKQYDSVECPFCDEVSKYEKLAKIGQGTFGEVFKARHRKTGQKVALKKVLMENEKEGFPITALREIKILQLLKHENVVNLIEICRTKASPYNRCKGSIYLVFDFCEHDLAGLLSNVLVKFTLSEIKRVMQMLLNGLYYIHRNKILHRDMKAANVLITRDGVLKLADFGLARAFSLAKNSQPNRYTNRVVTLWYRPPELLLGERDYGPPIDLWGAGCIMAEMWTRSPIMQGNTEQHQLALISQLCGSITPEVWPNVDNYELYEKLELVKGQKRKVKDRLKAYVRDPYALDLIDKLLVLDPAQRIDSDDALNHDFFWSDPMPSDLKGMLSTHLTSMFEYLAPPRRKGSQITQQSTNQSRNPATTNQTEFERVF
Chain of Cyclin-dependent kinase 5/CDK5 activator 1 (Q00535 whole entry): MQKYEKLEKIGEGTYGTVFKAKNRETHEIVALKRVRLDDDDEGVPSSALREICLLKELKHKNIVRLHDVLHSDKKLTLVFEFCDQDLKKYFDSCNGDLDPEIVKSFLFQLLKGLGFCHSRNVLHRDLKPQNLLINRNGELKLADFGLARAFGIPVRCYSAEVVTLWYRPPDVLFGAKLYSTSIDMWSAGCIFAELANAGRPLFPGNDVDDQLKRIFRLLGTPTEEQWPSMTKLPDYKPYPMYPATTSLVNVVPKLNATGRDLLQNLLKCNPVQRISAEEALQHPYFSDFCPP
Chain of Cyclin-dependent kinase 5/CDK5 activator 1 (Q15078 whole entry, further chain): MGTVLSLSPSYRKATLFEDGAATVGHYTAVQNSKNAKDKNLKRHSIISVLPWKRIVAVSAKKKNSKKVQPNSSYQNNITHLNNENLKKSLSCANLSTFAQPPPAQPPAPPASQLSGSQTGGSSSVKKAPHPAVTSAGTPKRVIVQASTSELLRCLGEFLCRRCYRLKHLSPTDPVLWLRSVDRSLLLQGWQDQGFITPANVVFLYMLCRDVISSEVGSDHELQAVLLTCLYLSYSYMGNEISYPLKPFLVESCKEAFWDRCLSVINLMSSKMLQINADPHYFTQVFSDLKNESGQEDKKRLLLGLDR
Chain of Cyclin-dependent kinase 5/CDK5 activator 1 (Homo sapiens) (Q00535 whole entry): as the sequence (Q00535 whole entry) above
Chain of Cyclin-dependent kinase 5/CDK5 activator 1 (Homo sapiens) (Q15078 99-307 partner limits assumed): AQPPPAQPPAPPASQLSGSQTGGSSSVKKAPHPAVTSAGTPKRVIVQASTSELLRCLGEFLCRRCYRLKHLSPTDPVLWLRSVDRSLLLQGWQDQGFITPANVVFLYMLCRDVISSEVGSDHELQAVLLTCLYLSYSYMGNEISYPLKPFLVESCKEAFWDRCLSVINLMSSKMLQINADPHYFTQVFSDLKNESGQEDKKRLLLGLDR
Chain of CDK9/Cyclin T (O60563 whole entry): as the sequence (O60563 whole entry) above
Chain of CDK9/Cyclin T (P50750 whole entry): as the sequence (P50750 whole entry) above
Chain of CDK9/Cyclin T (O60583 whole entry, further chain): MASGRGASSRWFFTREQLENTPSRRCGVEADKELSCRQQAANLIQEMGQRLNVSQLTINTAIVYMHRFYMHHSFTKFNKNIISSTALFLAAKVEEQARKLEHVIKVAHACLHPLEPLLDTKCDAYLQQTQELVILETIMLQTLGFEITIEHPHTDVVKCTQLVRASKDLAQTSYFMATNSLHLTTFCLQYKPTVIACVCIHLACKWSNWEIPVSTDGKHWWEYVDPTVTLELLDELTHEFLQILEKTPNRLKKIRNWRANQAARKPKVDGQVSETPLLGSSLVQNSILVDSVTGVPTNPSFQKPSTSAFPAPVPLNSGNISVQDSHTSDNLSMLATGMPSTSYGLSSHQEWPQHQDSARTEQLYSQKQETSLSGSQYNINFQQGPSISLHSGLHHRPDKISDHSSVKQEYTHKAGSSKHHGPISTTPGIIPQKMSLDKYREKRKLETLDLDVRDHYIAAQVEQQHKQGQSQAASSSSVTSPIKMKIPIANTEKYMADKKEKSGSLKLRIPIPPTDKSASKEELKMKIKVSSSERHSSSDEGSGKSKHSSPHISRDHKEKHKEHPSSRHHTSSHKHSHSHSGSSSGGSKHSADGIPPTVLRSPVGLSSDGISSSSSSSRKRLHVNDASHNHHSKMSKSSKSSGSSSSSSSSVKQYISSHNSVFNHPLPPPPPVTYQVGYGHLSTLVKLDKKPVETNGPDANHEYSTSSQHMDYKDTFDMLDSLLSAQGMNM

pKi [1] | pKi [2] | pKi [3] | GI50 [7] [nM] | inhibition [23] [%] | inhibition [24] [%] | inhibition [25] [%] | inhibition [26] [%] | Structure (SMILES) | Activity [5] [%] | other results
– | – | – | 7 | 24 | 48 | 56 | 73 | Cn1cc(-c2nc(Nc3cccc([N+](=O)[O-])c3)ncc2Cl)cn1 | – | –
8.30 | 6.75 | 7.04 | 80 | – | – | – | – | Cn1cc(-c2nc(Nc3cccc(S(N)(=O)=O)c3)ncc2Cl)cn1 | – | pKi [4]: 6.52
– | – | – | – | 8 | 10 | 3 | 39 | Cn1cc(-c2nc(Nc3ccc(C(F)(F)F)c(Cl)c3)ncc2F)cn1 | 32 | –
– | 6.77 | – | – | 65 | – | 48 | 59 | Cn1nccc1-c1nc(Nc2cccc(S(N)(=O)=O)c2)ncc1F | 0 | –
– | – | – | 215 | 42 | 1 | 46 | 20 | Cn1cc(-c2nc(Nc3cccc(S(=O)(=O)C(F)(F)F)c3)ncc2F)cn1 | – | –
– | 7.15 | – | – | 54 | 15 | 46 | 6 | Cn1cc(-c2nc(Nc3ccc(S(=O)(=O)C(F)(F)F)cc3)ncc2F)cn1 | 54 | –
– | 7.06 | – | 113 | 54 | – | 67 | – | Cn1cc(-c2nc(Nc3cccc([N+](=O)[O-])c3)ncc2F)cn1 | – | pKi [4]: 6.83

Continued, compound first:

Structure (SMILES) | pKi [1] | pKi [2] | pKi [3] | GI50 [7] [nM] | inhibition [23] [%] | inhibition [24] [%] | inhibition [25] [%] | inhibition [26] [%] | Activity [5] [%] | other results
Cn1cc(-c2nc(Nc3ccc(S(C)(=O)=O)cc3)ncc2Cl)cn1 | 8.22 | 8.15 | 7.44 | – | – | – | – | – | 63 | pKi [4]: 6.64
Cn1cc(-c2nc(Nc3cccc(S(N)(=O)=O)c3)ncc2F)cn1 | 8.30 | 7.64 | 7.11 | 18 | – | – | – | – | – | GI50 [6]: 80 nM; pKi [4]: 7.59; GI50 [8]: 25 nM; GI50 [9]: 32 nM; GI50 [10]: 129 nM; GI50 [11]: 162 nM; GI50 [12]: 119 nM; GI50 [13]: 154 nM; GI50 [14]: 65 nM; GI50 [15]: 81 nM; GI50 [16]: 90 nM; GI50 [17]: 64 nM; GI50 [18]: 109 nM; GI50 [19]: 149 nM; GI50 [20]: 83 nM; GI50 [21]: 79 nM; GI50 [22]: 106 nM
Cn1cc(-c2nc(Nc3cccc(S(=O)(=O)C(F)(F)F)c3)ncc2Cl)cn1 | – | – | – | 125 | 2 | 53 | 58 | 45 | 63 | –
CNc1nc(C)c(-c2nc(Nc3cccc(S(N)(=O)=O)c3)ncc2F)s1 [ASNUCICLIB] | – | – | – | – | – | – | – | – | – | Activity [27]: 1.21%; Activity [28]: 28.88%; Activity [29]: 16.81%; Activity [30]: 53.11%; viability at 1 µM [31]: 77%; Activity [32]: 15.19%; Activity [33]: 6.85%; Activity [34]: 0.95%; Activity [35]: Active
Cn1cc(-c2nc(NC3CCN(S(C)(=O)=O)CC3)ncc2Cl)cn1 | 7.59 | 8.10 | 8.05 | – | – | – | – | 39 | 45 | –
C[C@@]1(O)CCC[C@H]1n1c(=O)c(C(F)F)cc2cnc(NC3CCN(S(C)(=O)=O)CC3)nc21 [EBVACICLIB] | – | – | – | – | – | – | – | – | – | pKi [36]: > 7.72
Cn1cc(-c2nc(Nc3cccc(Cl)c3)ncc2F)cn1 | – | – | – | – | 50 | 57 | 46 | 69 | 12 | –
Cn1cc(-c2nc(Nc3ccc(S(C)(=O)=O)cc3)ncc2F)cn1 | 6.84 | – | 7.38 | – | – | – | – | 33 | 5 | –
CC[C@@H](Nc1nc(NCc2cnc(C)cc2C)c2ncn(C(C)C)c2n1)[C@H](C)O | – | – | – | – | – | – | – | – | – | pKi [37]: 8.30; pKi [38]: 6.24
Nc1cc(-c2cnn(Cc3ccccc3)c2)nc(Nc2cccc(S(N)(=O)=O)c2)n1 | – | – | – | – | 6 | 53 | 40 | 40 | 0 | –
Cn1cc(-c2nc(Nc3ccc(F)c(C(F)(F)F)c3)ncc2F)cn1 | – | – | – | – | 22 | 1 | 16 | 51 | 28 | –
Cc1nn(C)cc1-c1nc(NC2CCN(S(C)(=O)=O)CC2)ncc1Cl | 7.92 | 7.80 | 8.70 | – | – | – | – | 27 | 20 | –
Cn1cc(-c2cc(N)nc(Nc3cccc(S(N)(=O)=O)c3)n2)cn1 | – | – | – | – | 4 | 13 | 41 | 57 | 0 | –
Cn1cc(-c2nc(Nc3ccc(S(N)(=O)=O)cc3)ncc2F)cn1 | 8.22 | 7.68 | 7.72 | 232 | – | – | – | – | – | pKi [4]: 6.57
Cn1cc(-c2nc(NC3CCN(S(C)(=O)=O)CC3)ncc2F)cn1 | 7.00 | 7.74 | 7.44 | – | – | – | – | 55 | 17 | –
